From patent US20100061984A1, “COMPOSITIONS AND METHODS FOR MODULATION OF SUPPRESSOR T CELL ACTIVATION” (The Trustees of the University of Pennsylvania, priority 2006, published 2010)
Marks after values point to notes of the source that are not given here.

What was measured:
autoimmune models = test: several autoimmune models (NOD, EAE, CIA); type: in vivo; conditions: MOG-induced EAE and CIA mouse models
Excerpt: Studies of the rational inactivation of HDACs have been initiated with the intent of modifying FOXP3 acetylation. […] This treatment leads to increased FoxP3^+ suppressor cell levels and function. The models studied include the Nonobese Diabetic Mice (NOD) model, the myelin oligodendrocyte glycoprotein-induced experimental autoimmune encephalomyelitis (EAE) model, and the collagen-induced arthritis (CIA) mouse model.

FOXP3+CD25+ cells = test: flow cytometry of splenocytes from collagen induced arthritic mice for CD4, CD25 and FOXP3; type: in vivo
Description: Splenocytes from collagen induced arthritic mice treated with VPA (no disease evident) or PBS (disease evident) were stained for cell-surface CD25 and intracellular FOXP3. The CD25+FOXP3+cell subpopulation was gated, and FOXP3 level was analyzed.
(§1) HDAC inhibitor treatment in collagen induced arthritis: HDAC inhibitor VPA was tested in the collagen induced arthritis (CIA) disease model of rheumatoid arthritis. CD4+ T cells as well as B cells are responsible for disease manifestation within the joints and CD25+ Treg play a protective role in disease development. After disease induction with type II collagen, mice were administered VPA (400 mg/kg) or PBS ip daily for 5 weeks. They were scored for severity of disease twice per week. […] Splenocytes from collagen induced arthritic mice that were treated with VPA (no disease evident) or PBS (disease evident) were analyzed for expression of CD4, CD25 and FOXP3 by flow cytometry. […] Additionally, the intracellular levels of FOXP3 protein were elevated in the VPA treated mice compared to PBS mice (FIG. 10). […] In proposed studies VPA treated CD25+ cells will be compared to PBS treated CD25+ cells for increased functional regulatory activity in vitro. HDAC inhibitor VPA is able to modify disease progression in the CIA model of rheumatoid arthritis.

[1] = test system: Experimental Autoimmune Encephalomyelitis; test: experimental autoimmune encephalomyelitis model (MOG38-50 peptide); type: in vivo; conditions: Table 1, 7-10 mice per group, PBS 100%
Excerpt: (§2) Experiments were done to test the effect of valproic acid (VPA) on autoimmune disease models. Three models were used: a collagen induced arthritis (CIA) model; a non-obese diabetic mouse model; and an experimental autoimmune encephalomyelitis model. Collagen used in the CIA model was collagen from chicken sternal cartilage powder, Type II, from Sigma Cat#C9301. The peptide that was used in EAE experiments was Mouse MOG38-50 peptide ([…]-SEQ ID NO:1), which was synthesized using>F-moc solid phase methods and purified through HPLC by Invitrogen Life Technologies. For each model tested 7-10 mice were used per group. Results obtained with VPA were compared to those using the negative control phosphate buffered saline.

Non-obese diabetic mouse = test: non-obese diabetic mouse model; type: in vivo; conditions: Table 1, 7-10 mice per group, PBS 50%
Excerpt: as §2

[2] = test system: collagen induced arthritis (CIA); test: collagen induced arthritis (CIA) disease model of rheumatoid arthritis; type: in vivo, mice
Description: as §1, §2

| Compound | FoxP3+ suppressor cell levels and function (autoimmune models) | clinical effects in autoimmune models (autoimmune models) | intracellular levels of FOXP3 protein compared to PBS mice (FOXP3+CD25+ cells; CD25+FOXP3+ gated splenocytes from CIA mice (FIG. 10)) | increase in the percentage of FOXP3+CD25+ cells, VPA treated versus PBS treated splenocytes (FOXP3+CD25+ cells; splenocytes from CIA mice, flow cytometry) | Incidence of Disease [1] | Incidence of Disease (Non-obese diabetic mouse) | Incidence of Disease ([2]; Collagen Induced Arthritis, Table 1, 7-10 mice per group, PBS 100%) | mice showing any disease at the end of the 5 week study ([2]; VPA 400 mg/kg ip daily for 5 weeks after induction with type II collagen, PBS group 100%) | disease severity compared to PBS treated ([2]; VPA 400 mg/kg ip daily for 5 weeks, scored twice per week) |
| --- | --- | --- | --- | --- | --- | --- | --- | --- | --- |
| CC(/C=C/C(=O)NO)=C\[C@@H](C)C(=O)c1ccc(N(C)C)cc1 [TSA, Trichostatin A] | increased | significant clinical effects |  |  |  |  |  |  |  |
| CCCC(CCC)C(=O)O [VPA, valproic acid] | increased | significant clinical effects | elevated | 1.63 fold | 57%* | 20% | 29% | 25% | greatly reduced |
